Earlier results as cited in patent publication US8188047B2, “Therapeutic and cosmetic compositions for treatment of skin” (priority 2009, dated 2012).

Conditions: typically

In the case of `FC1(F)C(F)(F)C(F)(F)C2(F)C(F)(F)C(F)(F)C(F)(F)C(F)(F)C2(F)C1(F)F` (stereo not shown) [perfluorodecalin], the “stable up to (temperature)” value is given as “up to 400 °C”.
